Data from publication PMC7766758, “Furan-Conjugated Tripeptides as Potent Antitumor Drugs” (Biomolecules, 2020).
In brackets after ≈: the same amount, converted by molar mass. Entries after “also recorded” stand apart in the source; their conditions may differ. Where two headings read alike, the source gives them in different places. Each block holds one compound with its values, some of them ahead of it. Square brackets hold non-standard residues; d marks the D form. Side chains are listed from the residue outwards. Peptide text beside a SMILES is read from it. * marks the point of attachment. 2Nal = N[C@@H](Cc1ccc2ccccc2c1)C(=O)O; 2Furoyl = O=C(c1ccco1)*

Columns and labels:
[1] = system: human cervical cancer cells HeLa; assay: Anti-proliferative assay (MTT or resazurin), HeLa; format: cell-based; settings: for IC50 ± SD (µg/mL), proliferation of HeLa cells / IC50: 48 h
Description: The anti-proliferative effect of peptides was tested using various normal and cancer cells. Human cancer cells used were human cervical cancer cells HeLa (ATCC® CCL-2), and human breast cancer cells MCF-7 (ATCC® HTB22) and MDA-MB-231 (ATCC® HTB-26). Normal cells used were NIH-3T3 (ATCC® CRL-1658), human normal endothelial cells (human umbilical vein endothelial cells, HUVEC) (ECACC, Sigma-Aldrich, Lyon, France), and human lung fibroblasts IMR-90 (ATCC® CCL186). NIH-3T3, HeLa, IMR-90, MDA-MB-231, and MCF-7 cells were grown in DMEM supplemented with 10% fetal bovine serum (FBS), 1% L-glutamine, and 1% antibiotics (all from Invitrogen (Carlsbad, CA, USA)). HUVEC cells were cultured in specific medium (endothelial cell growth medium from Sigma Aldrich, Lyon, France). Cells were routinely grown on 25 cm^2 flasks. For anti-proliferative assay, cells were detached from flasks using a trypsin-EDTA solution (from Thermofisher, Illkirch-Graffenstaden, France). After counting using a Malassez chamber, cells were diluted in appropriate culture media and seeded into 96-well cell culture plates (Greiner bio-one, Paris, France) at approximately 6000 cells/well. Cells were then treated with increasing concentration of conjugates diluted in appropriate medium. Doxorubicin was used as positive control. After 48 h medium was aspirated and the number of viable cells was colorimetrically measured as previously described. Briefly, after exposure to increasing concentrations of conjugates or doxorubicin for 48 h, cell viability was measured using the standard MTT or resazurin assay. For the MTT assay, the supernatant was discarded and 50 µL of 0.5 mg/mL MTT dye was then added to each well and plates were further incubated for 4 h at 37 °C. The MTT was aspirated and 100 µL of DMSO was then added to each well. The extent of MTT reduction to formazan in cells was calculated by measuring the absorbance at 540 nm, using a spectrophotometer (Spectra Max plus, Molecular Devices, CA, USA). For the resazurin assay, the supernatant was discarded and 100 µL of resazurin solution (from Sigma Aldrich, Lyon, France) was added to each well. After 4 h of incubation at 37 °C, fluorescence associated to resazurin biotransformation by live cells was measured using spectrofluorometer (excitation 530 nm/emission 590 nm). In both cases, the antiproliferative activity was recorded as concentration causing 50% growth inhibition (IC50). Experiment was performed in triplicate (n = 3).

HeLa cells [2] = assay: Rhodamine 123 and propidium iodide staining assay; format: cell-based, human
Description: As mentioned above, HeLa cells were grown in DMEM medium and seeded 3000 cells/well into 96-well plates. A stock solution of rhodamine 123 (Sigma-Aldrich, St Louis, MO, USA) and prodidium iodide (Sigma-Aldrich, St Louis, MO, USA) at concentrations of 10 and 1 mg/mL were prepared in pure DMSO and water, respectively.
The next day, 1 mL of the fresh media with 2% FBS was made, in which rhodamine 123 and propidium iodide dyes were added to make final concentrations of 10 and 5 µg/mL, respectively. Compounds 4, 4a, and 4b at four different concentrations (10, 20, 30, and 40 µg/mL) were mixed with 1 mL of this media. Old media from the plates were aspirated from each well and 200 µL of fresh media containing compounds, rhodamine 123, and PI dye were added in their respective wells in triplicate and incubated at 37 °C in a 5% CO2 incubator. After 1 and 2 h incubation, media was aspirated from the wells and washed with PBS. These cells were visualized for rhodamine 123 and PI dye staining in a Nikon Eclipse TE2000-U fluorescence microscope at 200× magnification in FITC and TXR filters respectively. Images of cells at the same location for both dyes were captured. Rhodamine 123 and PI staining give green and red fluorescence, respectively. These two different colored images were then merged with one another using ImageJ software (NIH, Bethesda, MD, USA).

[3] = system: human breast cancer cells MDA-MB-231; assay: Anti-proliferative assay, MDA-MB-231; format: cell-based
Description: Cells were routinely grown on 25 cm^2 flasks. […] Doxorubicin was used as positive control. […] Experiment was performed in triplicate (n = 3).

[4] = system: IMR-90 (normal human fibroblasts)
Description: (§1) The anti-proliferative effect of peptides was tested using various normal and cancer cells. […] Normal cells used were NIH-3T3 (ATCC® CRL-1658), human normal endothelial cells (human umbilical vein endothelial cells, HUVEC) (ECACC, Sigma-Aldrich, Lyon, France), and human lung fibroblasts IMR-90 (ATCC® CCL186). NIH-3T3, HeLa, IMR-90, MDA-MB-231, and MCF-7 cells were grown in DMEM supplemented with 10% fetal bovine serum (FBS), 1% L-glutamine, and 1% antibiotics (all from Invitrogen (Carlsbad, CA, USA)). HUVEC cells were cultured in specific medium (endothelial cell growth medium from Sigma Aldrich, Lyon, France). Cells were routinely grown on 25 cm^2 flasks. For anti-proliferative assay, cells were detached from flasks using a trypsin-EDTA solution (from Thermofisher, Illkirch-Graffenstaden, France). After counting using a Malassez chamber, cells were diluted in appropriate culture media and seeded into 96-well cell culture plates (Greiner bio-one, Paris, France) at approximately 6000 cells/well. Cells were then treated with increasing concentration of conjugates diluted in appropriate medium. Doxorubicin was used as positive control. […] Briefly, after exposure to increasing concentrations of conjugates or doxorubicin for 48 h, cell viability was measured using the standard MTT or resazurin assay. For the MTT assay, the supernatant was discarded and 50 µL of 0.5 mg/mL MTT dye was then added to each well and plates were further incubated for 4 h at 37 °C. The MTT was aspirated and 100 µL of DMSO was then added to each well. The extent of MTT reduction to formazan in cells was calculated by measuring the absorbance at 540 nm, using a spectrophotometer (Spectra Max plus, Molecular Devices, CA, USA). For the resazurin assay, the supernatant was discarded and 100 µL of resazurin solution (from Sigma Aldrich, Lyon, France) was added to each well. After 4 h of incubation at 37 °C, fluorescence associated to resazurin biotransformation by live cells was measured using spectrofluorometer (excitation 530 nm/emission 590 nm). […]

[5] = system: mice normal 3T3 fibroblasts cells
Description: as §1

[6] = system: human breast cancer cells MCF-7
Description: as §1

[7] = system: HUVEC (human umbilical vein endothelial cells)
Description: as §1

HeLa cells [8] = assay: Atomic force microscopy of HeLa cells; format: cell-based, human; settings: 20 µg/mL, 24 h
Description: HeLa cells were grown in Dulbecco’s modified eagle medium (DMEM) supplemented with 10% fetal bovine serum. After 70–80% confluency was achieved, cells were treated with conjugate 4 at 20 µg/mL and incubated for 24 h at 37 °C in a 5% CO2 incubator. The next day, these cells were visualized using a microscope. In the untreated control, cells were healthy and attached, therefore, the cells were trypsinized to detach the cells from the wells, and then collected in a sterile Eppendorf tube. In conjugate 4 treated wells, cells were dead and detached. These dead cells were freely floating and therefore the cells were collected without using the trypsinization process in an Eppendorf tube. These cells collected in Eppendorf tubes were washed twice with sterile distilled water and then 10 µL of suspension was deposited into mica chips coated with 0.01% poly-L-lysine, to allow the cells attachment. This cell suspension was then dried at room temperature. Soon after, these mica chips were inserted inside an Agilent Technologies 5500 microscope and the chips were scanned at tapping mode with a silicon nitride cantilever. After finding cells in the chips, these cells were further scanned under a higher magnification. Atomic force microscopy (AFM) topography images were obtained, and we processed them in pseudo color images to differentiate the images according to the height. […]

[9] = system: mice normal 3T3 fibroblasts cells; assay: cells; settings: Mus musculus, Fibroblast, 48 h, read-out: IC50 (µg/mL) 3T3
Description: as §1

[10] = system: HUVEC (human umbilical vein endothelial cells); assay: cells; settings: 48 h, read-out: IC50 (µg/mL) HUVEC
Description: as §1

[11] = system: human breast cancer cells MCF-7; assay: cells; settings: MCF7, 48 h, read-out: IC50 (µg/mL) MCF-7
Description: as §1

[12] = system: IMR-90 (normal human fibroblasts); assay: cells; settings: IMR-90, 48 h, read-out: IC50 (µg/mL) IMR-90
Description: as §1

[13] = HeLa cells, MTT or resazurin, triplicate
[14] = HeLa cells, MTT or resazurin, read-out: IC50 ± SD (µM), proliferation of HeLa cells

SMILES: C[C@H](NC(=O)[C@H](Cc1ccc2ccccc2c1)NC(=O)c1ccco1)C(=O)N[C@@H](Cc1ccccc1)C(=O)NCCCC[C@H](NC(=O)[C@H](Cc1ccccc1)NC(=O)[C@H](C)NC(=O)[C@H](Cc1ccc2ccccc2c1)NC(=O)c1ccco1)C(N)=O [Conjugate 4b] (2Furoyl-[2Nal]AFK([Phe-Ala-2Nal-2Furoyl])-NH2)
effect on MMP or membrane integrity of HeLa cells (rhodamine 123 / PI) (HeLa cells [2]; HeLa, data not shown): do not affect MMP or the membrane integrity
antiproliferative activity against HeLa cells (in words) ([1]; HeLa cells): inactive
IC50 ± SD (µg/mL), proliferation of HeLa cells [1, 13]: > 100 µg/mL

SMILES: C[C@H](NC(=O)c1ccco1)C(=O)N[C@@H](Cc1ccc2ccccc2c1)C(=O)N[C@@H](Cc1ccccc1)C(N)=O [Conjugate 7, 2-Fur^4-L-Ala^3-L-2-Nal^2-L-Phe^1-CONH2]
IC50 ± SD (µg/mL), proliferation of HeLa cells [1, 13]: >100 µg/mL
IC50 [1, 14]: > 100 µM

SMILES: C[C@H](NC(=O)c1ccco1)C(=O)N[C@@H](Cc1ccccc1)C(=O)N[C@@H](Cc1ccc2ccccc2c1)C(N)=O [Conjugate 8, 2-Fur^4-L-Ala^3-L-Phe^2-L-2-Nal^1-CONH2]
IC50 ± SD (µg/mL), proliferation of HeLa cells [1, 13]: 29.1 ± 2.8 µg/mL
IC50 [1, 14]: 55.3 ± 5.31 µM

SMILES: C[C@H](NC(=O)[C@H](Cc1ccc2ccccc2c1)NC(=O)c1ccco1)C(=O)N[C@@H](Cc1ccccc1)C(N)=O [Conjugate 4, 2-Fur^4-L-2-Nal^3-L-Ala^2-L-Phe^1-CONH2]
antiproliferative activity on MDA-MB-231 (in words) [3]: did not inhibit the proliferation
IC50 (µg/mL) MDA-MB-231 ([3]; MDA-MB-231, 48 h, mean ± SD of triplicates): >100 µg/mL
antiproliferative activity on MDA-MB-231 (in words) ([3]; listed as conjugate 4): inactive; also recorded: no effect
rhodamine 123 fluorescence (mitochondrial membrane potential, MMP) (HeLa cells [2]; HeLa, 40 µg/mL, 1 or 2 h treatment): loss of mitochondrial membrane potential; also recorded: totally suppressed rhodamine fluorescence
PI dye fluorescence (membrane permeabilization) (HeLa cells [2]; HeLa, 20, 30 and 40 µg/mL, 1 or 2 h): increased
antiproliferative activity on IMR-90 (in words) ([4]; IMR-90): did not inhibit the proliferation
IC50 (µg/mL) IMR-90 ([4]; IMR-90, 48 h, mean ± SD of triplicates): >100 µg/mL
antiproliferative activity on 3T3 cells (in words) ([5]; 3T3): did not inhibit the proliferation
IC50 (µg/mL) 3T3 ([5]; 3T3, 48 h, mean ± SD of triplicates): >100 µg/mL
antiproliferative activity on MCF-7 (in words) ([6]; MCF-7): did not inhibit the proliferation
IC50 (µg/mL) MCF-7 ([6]; MCF-7, 48 h, mean ± SD of triplicates): >100 µg/mL
antiproliferative activity on HUVEC (in words) [7]: did not inhibit the proliferation
IC50 (µg/mL) HUVEC ([7]; 48 h, mean ± SD of triplicates): >100 µg/mL
IC50 [1]: 0.28 ± 0.09 µM
IC50 ± SD (µg/mL), proliferation of HeLa cells [1]: 0.15 ± 0.05 µg/mL
effect on HeLa cell membrane seen by AFM (HeLa cells [8]): membranolytic effect; also recorded: membranolytic affect

SMILES: COc1cccc2c1C(=O)c1c(O)c3c(c(O)c1C2=O)C[C@@](O)(C(=O)CO)C[C@@H]3O[C@H]1C[C@H](N)[C@H](O)[C@H](C)O1 [Doxorubicin]
IC50 ([3]; Homo sapiens, MDA-MB-231, 48 h, mean ± SD of triplicates): 0.21 ± 0.03 µg/mL (≈ 0.386 µM)
IC50 [9]: < 1 µg/mL
IC50 [10]: 0.02 ± 0.005 µg/mL (≈ 0.0368 µM)
IC50 [11]: 0.01 ± 0.005 µg/mL (≈ 0.0184 µM)
IC50 [12]: 0.06 ± 0.01 µg/mL (≈ 0.11 µM)
IC50 ([1]; Homo sapiens, HeLa cells, MTT or resazurin, triplicate, read-out: IC50 ± SD (µg/mL), proliferation of HeLa cells): 3.09 ± 0.16 µg/mL

Next, values leading:

IC50 ± SD (µg/mL), proliferation of HeLa cells [1, 13]: 21.1 ± 0.60 µg/mL
IC50 [1, 14]: 46.8 ± 1.33 µM
SMILES: C[C@H](NC(=O)[C@H](C)NC(=O)[C@H](Cc1ccc2ccccc2c1)NC(=O)c1ccco1)C(N)=O [Conjugate 3, 2-Fur^4-L-2-Nal^3-L-Ala^2-L-Ala^1-CONH2]

IC50 ± SD (µg/mL), proliferation of HeLa cells [1, 13]: 4.70 ± 0.60 µg/mL
IC50 [1, 14]: 9.16 ± 1.17 µM
SMILES: C[C@H](NC(=O)[C@@H](NC(=O)[C@H](Cc1ccc2ccccc2c1)NC(=O)c1ccco1)c1ccccc1)C(N)=O [Conjugate 10, 2-Fur^4-L-2-Nal^3-L-Phg^2-L-Ala^1-CONH2]

IC50 ± SD (µg/mL), proliferation of HeLa cells [1, 13]: 4.40 ± 0.20 µg/mL
IC50 [1, 14]: 8.35 ± 0.37 µM
SMILES: C[C@H](NC(=O)[C@H](Cc1ccccc1)NC(=O)[C@H](Cc1ccc2ccccc2c1)NC(=O)c1ccco1)C(N)=O [Conjugate 2, 2-Fur^4-L-2-Nal^3-L-Phe^2-L-Ala^1-CONH2]

IC50 ± SD (µg/mL), proliferation of HeLa cells [1, 13]: 19.2 ± 3.2 µg/mL
IC50 [1, 14]: 35.4 ± 5.89 µM
SMILES: C[C@H](NC(=O)[C@H](Cc1ccc(O)cc1)NC(=O)[C@H](Cc1ccc2ccccc2c1)NC(=O)c1ccco1)C(N)=O [Conjugate 9, 2-Fur^4-L-2-Nal^3-L-Tyr^2-L-Ala^1-CONH2]

IC50 ± SD (µg/mL), proliferation of HeLa cells [1, 13]: 10.4 ± 0.10 µg/mL
IC50 [1, 14]: 19.74 ± 0.18 µM
SMILES: C[C@H](NC(=O)[C@H](Cc1ccc2ccccc2c1)NC(=O)[C@H](Cc1ccccc1)NC(=O)c1ccco1)C(N)=O [Conjugate 6, 2-Fur^4-L-Phe^3-L-2-Nal^2-L-Ala^1-CONH2]

IC50 ± SD (µg/mL), proliferation of HeLa cells [1, 13]: 2.59 ± 0.30 µg/mL
IC50 [1, 14]: 4.49 ± 0.52 µM
SMILES: C[C@H](NC(=O)[C@H](Cc1ccc2ccccc2c1)NC(=O)[C@H](Cc1ccc2ccccc2c1)NC(=O)c1ccco1)C(N)=O [Conjugate 5, 2-Fur^4-L-2-Nal^3-L-2-Nal^2-L-Ala^1-CONH2]
